Details: in vivo

| Structure (SMILES) | Number of subjects with quantifiable plasma concentrations (human, 8 weeks) | Subjects with quantifiable plasma concentrations (human, 8 weeks) | Percutaneous absorption of unchanged drug into the systemic circulation | Post-dose plasma concentrations |
| --- | --- | --- | --- | --- |
| Oc1ccc(O)cc1 [hydroquinone, 1,4-benzenediol] | 8 | 18% | minimal | undetectably low |
| CC1=C(/C=C/C(C)=C/C=C/C(C)=C/C(=O)O)C(C)(C)CCC1 [tretinoin, (all-E)-3,7-dimethyl-9-(2,6,6-trimethyl-1-cyclohexen-1-yl)-2,4,6,8-nonatetraenoic acid] | – | – | minimal | – |
| CC1(C)O[C@@H]2C[C@H]3[C@@H]4C[C@H](F)C5=CC(=O)C=C[C@]5(C)[C@@]4(F)[C@@H](O)C[C@]3(C)[C@]2(C(=O)CO)O1 [fluocinolone acetonide, (6,11,16)-6,9-difluoro-11,21-dihydroxy-16,17-[(1-methylethylidene)bis(oxy)]-pregna-1,-4-diene-3,20-dione] | – | – | minimal | undetectably low |

From patent US9333172B2, “Topical skin care composition” (GALDERMA S.A., priority 2002, dated 2016)
